Laboratory results published in EP0958287B1, “SULFAMIDE-METALLOPROTEASE INHIBITORS” (F. HOFFMANN-LA ROCHE AG, priority 1997, dated 1998).

Assays:
TNF-α = test: Inhibition of LPS induced TNF-α production in mice in vivo; conditions: Female Balb/c mice, subcutaneous, LPS 50 µg/mouse i.p. after 1 h, serum TNF-α 1.5 h later
Method: The activity of compounds of this invention in inhibiting the TNF-α release was determined, using a minor modification of the methods described in Zanetti, G.; Heumann, D., et. al., "Cytokine production after intravenous or peritoneal Gram-negative bacterial challenge in mice" J. Immunol., 148, 1890, (1992) and Sekut, L., Menius, J.A., et. al., "Evaluation if the significance of elevated levels of systemic and localized tumor necrosis factor in different animal models of inflammation" J. Lab. Clin. Med., 124, 813, (1994).
Female Balb/c mice were anesthetized and injected subcutaneously with the test compounds dissolved in CMC vehicle or hydroxypropylmethyl cellulose based vehicle. Control animals received only the vehicle. After 1 h, LPS (50 µg/ mouse, Sigma #13129, Sigma Chemical Co., St. Louis, MO) was injected intraperitoneally. After 1.5 h, blood was collected from the retro-orbital plexus region of the animals in a microtainer serum separator tube (Becton Dickinson, Cat. No. #5960, Becton Dickinson & Co., Franklin Lakes, NJ). The sera was separated and the amount of TNF-α was determined using the EM-TNFA® kit (Endogen, Woburn, MA) by following the manufacturer's protocol.

TNF = test: Inhibition of TNF release in vitro (LPS/PMA stimulated Monomac 6 cells); type: cell-based; conditions: Homo sapiens, MONO-MAC-6, Conc. 10 µM, 2 h
Method: The activity of compounds of this invention in inhibiting the TNF release was determined, using the a minor modification of the method described in Pradines-Figueres, A. and Raetz, C.R.H., J. Biol. Chem., 267 (32), 23261, (1992).
Human Monomac 6 cells (Ziegler-Heitbrock, H.W.L., et al., Int. J. Cancer, 41, 456, (1988)) were cultured at 37 °C in RPMI 1640 medium containing 10% fetal calf serum to a density of 1 x 10^5 cells/ml. 0.23 ml of these cells were placed in each well of a tissue culture plate and the cells were incubated for 15 min. The test compounds were dissolved in above mentioned medium and added and the incubation was continued for an additional 15 min. 10 µl of an lipopolysaccharide/phorbol-12-myristate -13-acetate (LPS/PMA) mixture was added such that the final concentration of lipopolysaccharide was 10 ng/ml and the final concentration of phorbol-12-myristate -13-acetate was 30 ng/ml. The cells were incubated for 2 h after which the plate was centrifuged and the medium was removed and analyzed for TNF content. The analysis was performed using a TNF Quantikine® Immunoassay (R & D Systems, Minneapolis, MN 55413) by following the manufacturer's protocol.

collagen matrix [1] = test: Cartilage plug degradation in vivo (cartilage plug implant assay, hydroxyproline content); conditions: cartilage plug implant in female Lewis rats, terminated after 8 or 9 days; hydroxyproline content relative to vehicle group
collagen matrix [2] = test: Degradation of cartilage plug in vitro (IL-1-α stimulated cartilage explants, hydroxyproline content); type: cell-based; conditions: bovine cartilage explants stimulated with IL-1-α 20 ng/ml, 21 days; compounds at concentrations between 10 and 300 nm; hydroxyproline content relative to control
Method: The ability of the compounds of this invention to inhibit the degradation of the collagen matrix (as judged by release of hydroxyproline) was determined by the cartilage plug degradation assay in vitro by following a slight modification of the method described in Spirito, S., Doughty, E., et al., "Metalloproteinase inhibitors halt collagen breakdown in IL-1 induced bovine nasal cartilage cultures" Inflamm.
The cultures were stimulated with IL-1-α at a final concentration of 20 ng/ml. Compounds of Formula (I), were added at concentrations between 10 and 300 nm in DMSO. The control samples contained only IL-1-α. […] The cartilage plugs were removed, hydrolyzed and the hydroxyproline content was determined. The MMP inhibitory activity of test materials is the measure of the hydroxyproline content in the test group relative to the vehicle treated group (control group).

human collagenase-1 = test: Inhibition of matrix metalloproteases in vitro: collagenase-1; type: biochemical; conditions: hydrolysis of MCA-Pro-Leu-Gly-Leu-DPA-Ala-Arg-NH2 at 37 °C; read-out: Collagenase-I IC50
Method: The matrix metalloprotease enzyme was diluted with assay buffer (50 mM Tricine pH 7.5, 200 mM NaCl, 10 mM CaCl2, and 0.005% Brij-35) containing 10 µmole of above substrate dissolved in DMSO.

human collagenase-3 = test: Inhibition of matrix metalloproteases in vitro: human collagenase-3; type: biochemical; conditions: hydrolysis of MCA-Pro-Leu-Gly-Leu-DPA-Ala-Arg-NH2 at 37 °C; species of collagenase-III not given

| SMILES | % inhibition (TNF-α) [%] | % protection (collagen matrix [1]) [%] | further results |
| --- | --- | --- | --- |
| O=CN1CCN(S(=O)(=O)N2CCC(C(=O)c3ccc(Cl)cc3)CC2)C(C(=O)NO)C1 (stereo not shown) [compound 262] | 50 | – | – |
| CC(C)[C@H](C(=O)NO)N(Cc1ccccc1)S(=O)(=O)N1CCCCC1 [compound 1, N-hydroxy-2-(R)-[benzyl-(piperidine-1-sulfonyl)amino]-3-methylbutyramide] | – | – | inhibition at 10 µM (TNF): < 15% |
| N#Cc1ccc2[nH]cc(C3CCN(S(=O)(=O)N4CCCC[C@@H]4C(=O)NO)CC3)c2c1 [compound 294] | 90 | – | – |
| CC(C)[C@@H](NS(=O)(=O)N1CCC(Oc2ccc(F)cc2)CC1)C(=O)NO [compound 179] | – | 63 | – |
| CC(C)[C@@H](NS(=O)(=O)N1CCN(c2ccc(OCc3ccccc3)cc2)CC1)C(=O)NO [compound 74, N-hydroxy-2-(R)-{[4-(4-benzyloxyphenyl)piperazine-1-sulfonyl]amino}-3-methylbutyramide] | – | 46 | inhibition at 10 µM (TNF): 17% |
| CC(C)[C@@H](NS(=O)(=O)N1CCN(c2ccc(Cl)cc2)CC1)C(=O)NO [compound 51] | – | 45 | % protection (collagen matrix [2]): 35% |
| O=C(NO)[C@H]1CCCCN1S(=O)(=O)N1CCCC1 [compound 232] | 73 | – | – |
| CC(C)[C@@H](NS(=O)(=O)N1CCN(c2ccc(Cl)cn2)CC1)C(=O)NO [compound 50] | – | 70 | % protection (collagen matrix [2]): 71% |
| CN(C)C(=O)N1CCN(S(=O)(=O)N2CCC(c3c[nH]c4c(F)c(F)c(F)c(F)c34)CC2)[C@@H](C(=O)NO)C1 [compound 309] | 46 | – | – |
| O=C(c1ccc(Cl)cc1)C1CCN(S(=O)(=O)N2CCCC[C@@H]2C(=O)NO)CC1 [compound 242] | – | – | % protection (collagen matrix [2]): 27% |
| CC(C)[C@@H](NS(=O)(=O)N1CCN(c2ccc(OCc3ccncc3)cc2)CC1)C(=O)O [compound 413] | – | – | IC50 (human collagenase-1): 9.3 µM; IC50 (human collagenase-3): 0.26 µM |
| O=C(NO)C1CCCCN1S(=O)(=O)N1CCN(c2ccc(Cl)cc2)CC1 (racemic) [compound 234] | 46 | – | – |
